Reference: the kinase profiling compilation of Christmann-Franck et al. (2016)

Legend:
Assay in all cases: radiometric filter-binding kinase assay, Kinase HotSpot
Details in all cases: compound 0.5 µM; ATP 10 µM
[1] = molecular target: ABL1 (human) (UniProt P00519)
[2] = molecular target: ACVRL1 (human) (UniProt P37023)
[3] = molecular target: AKT1 (human) (UniProt P31749)
[4] = molecular target: AURKC (human) (UniProt Q9UQB9)
[5] = molecular target: CDC42BPA (human) (UniProt Q5VT25)
[6] = molecular target: CDK6 CCND3 (human) (UniProt P30281+Q00534)
[7] = molecular target: CDK9 CCNK (human) (UniProt O75909+P50750)
[8] = molecular target: CHUK (human) (UniProt O15111)
[9] = molecular target: CSK (human) (UniProt P41240)
[10] = molecular target: CSNK1G2 (human) (UniProt P78368)
[11] = molecular target: CSNK2A1 (human) (UniProt P68400)
[12] = molecular target: DCLK2 (human) (UniProt Q8N568)
[13] = molecular target: DYRK1B (human) (UniProt Q9Y463)
[14] = molecular target: DYRK2 (human) (UniProt Q92630)
[15] = molecular target: EGFR (human) (UniProt P00533)
[16] = molecular target: EPHA1 (human) (UniProt P21709)
[17] = molecular target: FGR (human) (UniProt P09769)
[18] = molecular target: GRK6 (human) (UniProt P43250)
[19] = molecular target: HIPK1 (human) (UniProt Q86Z02)
[20] = molecular target: IRAK1 (human) (UniProt P51617)
[21] = molecular target: JAK1 JH1 catalytic (human) (UniProt P23458)
[22] = molecular target: JAK2 JH1 JH2 (human) (UniProt O60674)
[23] = molecular target: LTK (human) (UniProt P29376)
[24] = molecular target: MAP4K2 (human) (UniProt Q12851)
[25] = molecular target: MARK1 (human) (UniProt Q9P0L2)
[26] = molecular target: MST4 (human) (UniProt Q9P289)
[27] = molecular target: PDGFRA (human) (UniProt P16234)
[28] = molecular target: PDPK1 (human) (UniProt O15530)
[29] = molecular target: PKN1 (human) (UniProt Q16512)
[30] = molecular target: PNCK (human) (UniProt Q6P2M8)
[31] = molecular target: PRKCI (human) (UniProt P41743)
[32] = molecular target: PRKCZ (human) (UniProt Q05513)
[33] = molecular target: PRKX (human) (UniProt P51817)
[34] = molecular target: PTK2B (human) (UniProt Q14289)
[35] = molecular target: RET (human) (UniProt P07949)
[36] = molecular target: SLK (human) (UniProt Q9H2G2)
[37] = molecular target: SRMS (human) (UniProt Q9H3Y6)
[38] = molecular target: SRPK3 (human) (UniProt Q9UPE1)
[39] = molecular target: STK3 (human) (UniProt Q13188)
[40] = molecular target: STK38 (human) (UniProt Q15208)
[41] = molecular target: SYK (human) (UniProt P43405)
[42] = molecular target: WNK2 (human) (UniProt Q9Y3S1)

Chain of CSNK2A1 (human) (P68400 whole entry, looked up): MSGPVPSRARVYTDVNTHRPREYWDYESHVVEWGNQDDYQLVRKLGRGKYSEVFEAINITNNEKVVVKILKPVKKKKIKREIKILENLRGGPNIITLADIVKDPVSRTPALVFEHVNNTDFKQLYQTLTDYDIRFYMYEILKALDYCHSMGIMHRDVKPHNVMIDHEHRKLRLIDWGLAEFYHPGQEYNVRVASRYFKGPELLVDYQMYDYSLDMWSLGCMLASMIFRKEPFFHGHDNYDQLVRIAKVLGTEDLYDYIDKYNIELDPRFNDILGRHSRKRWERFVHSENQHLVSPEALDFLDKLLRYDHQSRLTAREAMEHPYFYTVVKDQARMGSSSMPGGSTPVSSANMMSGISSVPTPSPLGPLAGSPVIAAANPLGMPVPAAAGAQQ
Chain of CDK6 CCND3 (human) (P30281 whole entry, looked up): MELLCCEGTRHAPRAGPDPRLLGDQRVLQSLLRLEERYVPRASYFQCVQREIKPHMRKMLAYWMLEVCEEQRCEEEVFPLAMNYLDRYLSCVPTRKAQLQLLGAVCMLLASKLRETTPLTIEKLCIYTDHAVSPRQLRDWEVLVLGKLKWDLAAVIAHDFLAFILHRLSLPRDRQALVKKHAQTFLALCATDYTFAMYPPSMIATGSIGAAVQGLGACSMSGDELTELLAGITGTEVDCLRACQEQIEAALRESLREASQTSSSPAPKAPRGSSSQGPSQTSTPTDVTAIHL
Chain of CDK6 CCND3 (human) (Q00534 whole entry, looked up): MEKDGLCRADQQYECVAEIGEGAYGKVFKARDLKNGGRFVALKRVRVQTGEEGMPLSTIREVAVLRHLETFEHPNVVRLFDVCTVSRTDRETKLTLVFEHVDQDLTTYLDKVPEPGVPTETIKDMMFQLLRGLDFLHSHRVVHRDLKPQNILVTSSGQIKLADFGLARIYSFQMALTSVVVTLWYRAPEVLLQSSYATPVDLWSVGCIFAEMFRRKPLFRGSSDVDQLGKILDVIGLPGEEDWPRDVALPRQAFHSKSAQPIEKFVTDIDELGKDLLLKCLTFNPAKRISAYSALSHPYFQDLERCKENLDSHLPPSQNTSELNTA
Chain of CDK9 CCNK (human) (O75909 whole entry, looked up): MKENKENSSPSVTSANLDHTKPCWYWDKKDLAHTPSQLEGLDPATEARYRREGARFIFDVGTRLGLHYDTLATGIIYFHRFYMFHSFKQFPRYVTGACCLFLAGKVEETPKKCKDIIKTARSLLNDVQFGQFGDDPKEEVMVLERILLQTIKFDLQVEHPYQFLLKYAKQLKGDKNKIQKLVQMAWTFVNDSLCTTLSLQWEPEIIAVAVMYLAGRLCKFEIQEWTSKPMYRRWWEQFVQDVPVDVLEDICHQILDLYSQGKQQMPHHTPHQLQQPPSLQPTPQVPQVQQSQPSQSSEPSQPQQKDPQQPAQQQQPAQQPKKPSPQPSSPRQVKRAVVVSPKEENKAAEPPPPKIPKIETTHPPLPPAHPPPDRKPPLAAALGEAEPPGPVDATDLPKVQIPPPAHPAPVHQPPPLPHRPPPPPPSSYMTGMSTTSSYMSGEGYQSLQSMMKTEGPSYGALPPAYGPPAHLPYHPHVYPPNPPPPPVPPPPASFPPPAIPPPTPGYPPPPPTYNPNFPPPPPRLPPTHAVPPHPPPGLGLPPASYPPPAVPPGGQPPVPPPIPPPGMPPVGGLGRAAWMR
Chain of CDK9 CCNK (human) (P50750 whole entry, looked up): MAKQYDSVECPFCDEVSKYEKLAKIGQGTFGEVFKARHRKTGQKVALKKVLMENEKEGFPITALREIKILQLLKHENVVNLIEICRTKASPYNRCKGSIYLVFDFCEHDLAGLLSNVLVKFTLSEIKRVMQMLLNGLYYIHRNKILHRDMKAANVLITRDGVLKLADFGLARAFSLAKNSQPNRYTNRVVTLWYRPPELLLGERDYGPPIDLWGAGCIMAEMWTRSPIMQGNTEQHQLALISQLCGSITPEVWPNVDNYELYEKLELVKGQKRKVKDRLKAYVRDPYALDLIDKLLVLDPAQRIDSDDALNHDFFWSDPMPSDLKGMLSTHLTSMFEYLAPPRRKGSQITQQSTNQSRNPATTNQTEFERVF
Chain of CHUK (human) (O15111 whole entry, looked up): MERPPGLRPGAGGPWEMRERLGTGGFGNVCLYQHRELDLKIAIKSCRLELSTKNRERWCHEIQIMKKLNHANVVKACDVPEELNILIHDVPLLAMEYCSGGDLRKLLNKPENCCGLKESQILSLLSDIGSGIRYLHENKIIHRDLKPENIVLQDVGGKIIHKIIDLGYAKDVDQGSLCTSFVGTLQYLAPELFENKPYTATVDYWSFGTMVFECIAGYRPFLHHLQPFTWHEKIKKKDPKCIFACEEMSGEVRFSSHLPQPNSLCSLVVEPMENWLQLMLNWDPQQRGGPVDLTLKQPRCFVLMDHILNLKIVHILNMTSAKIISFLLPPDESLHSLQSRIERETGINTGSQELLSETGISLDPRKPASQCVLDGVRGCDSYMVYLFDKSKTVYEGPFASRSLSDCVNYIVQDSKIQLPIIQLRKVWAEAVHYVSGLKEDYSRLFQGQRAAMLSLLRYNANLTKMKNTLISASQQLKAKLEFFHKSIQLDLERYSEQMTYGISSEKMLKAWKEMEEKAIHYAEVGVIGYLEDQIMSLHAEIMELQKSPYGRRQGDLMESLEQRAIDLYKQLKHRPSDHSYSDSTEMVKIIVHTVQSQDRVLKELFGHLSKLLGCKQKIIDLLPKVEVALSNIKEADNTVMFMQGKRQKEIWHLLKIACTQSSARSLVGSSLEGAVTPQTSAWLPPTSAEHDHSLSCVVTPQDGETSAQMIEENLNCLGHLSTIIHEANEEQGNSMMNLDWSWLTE
Chain of RET (human) (P07949 whole entry, looked up): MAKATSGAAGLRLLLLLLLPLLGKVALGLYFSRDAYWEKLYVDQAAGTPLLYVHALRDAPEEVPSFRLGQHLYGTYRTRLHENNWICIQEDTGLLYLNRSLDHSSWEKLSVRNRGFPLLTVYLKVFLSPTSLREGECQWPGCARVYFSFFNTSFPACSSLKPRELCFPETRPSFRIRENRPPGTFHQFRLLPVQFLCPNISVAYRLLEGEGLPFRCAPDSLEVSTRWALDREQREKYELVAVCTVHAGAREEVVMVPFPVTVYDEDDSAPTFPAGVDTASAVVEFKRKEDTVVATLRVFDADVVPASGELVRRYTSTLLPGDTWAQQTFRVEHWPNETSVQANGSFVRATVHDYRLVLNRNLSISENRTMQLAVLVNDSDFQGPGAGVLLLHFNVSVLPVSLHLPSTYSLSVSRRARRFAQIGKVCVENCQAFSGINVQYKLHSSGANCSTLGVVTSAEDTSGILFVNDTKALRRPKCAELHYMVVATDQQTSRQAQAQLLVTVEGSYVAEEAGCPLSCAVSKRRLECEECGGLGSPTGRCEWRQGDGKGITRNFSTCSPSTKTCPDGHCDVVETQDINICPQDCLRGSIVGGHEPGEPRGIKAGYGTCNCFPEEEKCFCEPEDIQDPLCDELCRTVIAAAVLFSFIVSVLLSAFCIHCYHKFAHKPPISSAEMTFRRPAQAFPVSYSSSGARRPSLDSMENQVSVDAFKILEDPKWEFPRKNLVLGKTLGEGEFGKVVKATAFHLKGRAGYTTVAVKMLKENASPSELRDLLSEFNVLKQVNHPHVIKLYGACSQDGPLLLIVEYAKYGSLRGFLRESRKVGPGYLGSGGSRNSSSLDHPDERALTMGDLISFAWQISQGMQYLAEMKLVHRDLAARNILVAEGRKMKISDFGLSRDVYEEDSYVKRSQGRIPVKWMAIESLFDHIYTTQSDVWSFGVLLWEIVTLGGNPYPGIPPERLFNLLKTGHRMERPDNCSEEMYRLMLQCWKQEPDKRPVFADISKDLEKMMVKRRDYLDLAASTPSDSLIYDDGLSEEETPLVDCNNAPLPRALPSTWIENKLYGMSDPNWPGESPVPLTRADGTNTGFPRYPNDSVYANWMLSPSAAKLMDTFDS
Chain of AKT1 (human) (P31749 whole entry, looked up): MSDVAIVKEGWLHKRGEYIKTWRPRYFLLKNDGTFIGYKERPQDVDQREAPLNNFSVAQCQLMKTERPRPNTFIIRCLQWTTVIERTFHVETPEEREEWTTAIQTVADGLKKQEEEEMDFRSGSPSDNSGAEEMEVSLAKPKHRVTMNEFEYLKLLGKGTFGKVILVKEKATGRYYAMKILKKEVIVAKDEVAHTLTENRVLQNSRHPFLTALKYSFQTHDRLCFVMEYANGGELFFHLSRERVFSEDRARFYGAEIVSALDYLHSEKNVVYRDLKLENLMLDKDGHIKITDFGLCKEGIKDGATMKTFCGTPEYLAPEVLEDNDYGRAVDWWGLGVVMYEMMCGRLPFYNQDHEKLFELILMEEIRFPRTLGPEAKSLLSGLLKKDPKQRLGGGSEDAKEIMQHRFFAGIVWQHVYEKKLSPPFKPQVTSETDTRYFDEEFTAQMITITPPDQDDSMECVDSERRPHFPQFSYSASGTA
Chain of STK3 (human) (Q13188 whole entry, looked up): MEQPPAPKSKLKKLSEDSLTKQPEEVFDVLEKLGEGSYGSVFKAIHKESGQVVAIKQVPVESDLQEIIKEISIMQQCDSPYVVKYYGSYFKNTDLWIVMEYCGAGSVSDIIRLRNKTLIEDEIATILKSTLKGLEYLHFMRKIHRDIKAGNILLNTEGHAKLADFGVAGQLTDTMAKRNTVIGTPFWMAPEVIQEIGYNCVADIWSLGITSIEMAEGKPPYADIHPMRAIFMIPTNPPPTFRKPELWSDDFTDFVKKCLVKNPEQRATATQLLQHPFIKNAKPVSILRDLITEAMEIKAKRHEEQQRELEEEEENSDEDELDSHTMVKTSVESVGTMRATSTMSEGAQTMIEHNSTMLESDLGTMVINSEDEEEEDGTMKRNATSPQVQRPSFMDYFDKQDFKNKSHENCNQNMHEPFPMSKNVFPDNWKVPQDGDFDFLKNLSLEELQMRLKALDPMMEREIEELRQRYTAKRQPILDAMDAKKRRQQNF

## Cc1[nH]c(/C=C2\C(=O)Nc3ccc(S(=O)(=O)N(C)c4cccc(Cl)c4)cc32)c(C)c1C(=O)N1CCN(C)CC1
[1]
  residual activity: 89.1%
[2]
  residual activity: 103%
[3]
  residual activity: 98.8%
[4]
  residual activity: 37.9%
[5]
  residual activity: 105%
[6]
  residual activity: 72.8%
[7]
  residual activity: 90.2%
[8]
  residual activity: 100%
[9]
  residual activity: 78.2%
[10]
  residual activity: 99.7%
[11]
  residual activity: 78.8%
[12]
  residual activity: 90.4%
[13]
  residual activity: 98.9%
[14]
  residual activity: 101%
[15]
  residual activity: 97.1%
[16]
  residual activity: 108%
[17]
  residual activity: 39.2%
[18]
  residual activity: 89.7%
[19]
  residual activity: 104%
[20]
  residual activity: 57.7%
[21]
  residual activity: 68%
[22]
  residual activity: 40.6%
[23]
  residual activity: 45.5%
[24]
  residual activity: 53.5%
[25]
  residual activity: 62.5%
[26]
  residual activity: 63.5%
[27]
  residual activity: 72.8%
[28]
  residual activity: 114%
[29]
  residual activity: 86.4%
[30]
  residual activity: 101%
[31]
  residual activity: 98.7%
[32]
  residual activity: 94.5%
[33]
  residual activity: 104%
[34]
  residual activity: 57.7%
[35]
  residual activity: 23%
[36]
  residual activity: 13.6%
[37]
  residual activity: 104%
[38]
  residual activity: 84.8%
[39]
  residual activity: 78.6%
[40]
  residual activity: 102%
[41]
  residual activity: 96.7%
[42]
  residual activity: 112%

## CCOC(=O)c1c(C)[nH]c(/C=C2\C(=O)Nc3ccccc32)c1C
[1]
  residual activity: 95.4%
[2]
  residual activity: 94.8%
[3]
  residual activity: 96.1%
[4]
  residual activity: 89.1%
[5]
  residual activity: 85.7%
[6]
  residual activity: 84.7%
[7]
  residual activity: 97.5%
[8]
  residual activity: 102%
[9]
  residual activity: 104%
[10]
  residual activity: 84.8%
[11]
  residual activity: 114%
[12]
  residual activity: 94.7%
[13]
  residual activity: 105%
[14]
  residual activity: 92.4%
[15]
  residual activity: 92.2%
[16]
  residual activity: 90.8%
[17]
  residual activity: 79.3%
[18]
  residual activity: 90.8%
[19]
  residual activity: 97.3%
[20]
  residual activity: 111%
[21]
  residual activity: 97.1%
[22]
  residual activity: 96.7%
[23]
  residual activity: 66.9%
[24]
  residual activity: 95.5%
[25]
  residual activity: 90.8%
[26]
  residual activity: 101%
[27]
  residual activity: 82.8%
[28]
  residual activity: 92.5%
[29]
  residual activity: 89.6%
[30]
  residual activity: 88.6%
[31]
  residual activity: 92.9%
[32]
  residual activity: 97%
[33]
  residual activity: 94.8%
[34]
  residual activity: 80.6%
[35]
  residual activity: 40.8%
[36]
  residual activity: 89.8%
[37]
  residual activity: 104%
[38]
  residual activity: 88.8%
[39]
  residual activity: 73.7%
[40]
  residual activity: 101%
[41]
  residual activity: 89.3%
[42]
  residual activity: 100%

## CCCC(=O)Oc1ccc2[nH]c(C(=O)c3cc4ccccc4[nH]3)cc2c1
[1]
  residual activity: 100%
[2]
  residual activity: 90.9%
[3]
  residual activity: 102%
[4]
  residual activity: 94.9%
[5]
  residual activity: 98%
[6]
  residual activity: 92.5%
[7]
  residual activity: 104%
[8]
  residual activity: 94.5%
[9]
  residual activity: 83.5%
[10]
  residual activity: 95.5%
[11]
  residual activity: 99.8%
[12]
  residual activity: 89.2%
[13]
  residual activity: 103%
[14]
  residual activity: 91.8%
[15]
  residual activity: 95.2%
[16]
  residual activity: 88.8%
[17]
  residual activity: 88.4%
[18]
  residual activity: 95.8%
[19]
  residual activity: 101%
[20]
  residual activity: 90.5%
[21]
  residual activity: 104%
[22]
  residual activity: 106%
[23]
  residual activity: 87.5%
[24]
  residual activity: 95.3%
[25]
  residual activity: 96.4%
[26]
  residual activity: 94.8%
[27]
  residual activity: 96.6%
[28]
  residual activity: 101%
[29]
  residual activity: 94.6%
[30]
  residual activity: 99.4%
[31]
  residual activity: 99.2%
[32]
  residual activity: 98.3%
[33]
  residual activity: 96.1%
[34]
  residual activity: 87.6%
[35]
  residual activity: 100%
[36]
  residual activity: 98.9%
[37]
  residual activity: 104%
[38]
  residual activity: 93.2%
[39]
  residual activity: 87%
[40]
  residual activity: 96.9%
[41]
  residual activity: 93.9%
[42]
  residual activity: 113%

## Nc1ncnc2[nH]nc(Nc3ccc(F)cc3)c12
[1]
  residual activity: 88.1%
[2]
  residual activity: 108%
[3]
  residual activity: 93.3%
[4]
  residual activity: 96%
[5]
  residual activity: 103%
[6]
  residual activity: 99.6%
[7]
  residual activity: 92.4%
[8]
  residual activity: 99.5%
[9]
  residual activity: 80.2%
[10]
  residual activity: 95.7%
[11]
  residual activity: 89.9%
[12]
  residual activity: 99.5%
[13]
  residual activity: 99.2%
[14]
  residual activity: 90.6%
[15]
  residual activity: 100%
[16]
  residual activity: 101%
[17]
  residual activity: 89.5%
[18]
  residual activity: 103%
[19]
  residual activity: 106%
[20]
  residual activity: 91.8%
[21]
  residual activity: 99%
[22]
  residual activity: 105%
[23]
  residual activity: 92.5%
[24]
  residual activity: 88.9%
[25]
  residual activity: 93.8%
[26]
  residual activity: 91%
[27]
  residual activity: 101%
[28]
  residual activity: 102%
[29]
  residual activity: 102%
[30]
  residual activity: 98.4%
[31]
  residual activity: 91.3%
[32]
  residual activity: 109%
[33]
  residual activity: 90.4%
[34]
  residual activity: 101%
[35]
  residual activity: 78.1%
[36]
  residual activity: 99.5%
[37]
  residual activity: 104%
[38]
  residual activity: 91.5%
[39]
  residual activity: 90.8%
[40]
  residual activity: 101%
[41]
  residual activity: 97.4%
[42]
  residual activity: 110%
